Test results published in patent publication US6750232B2, “2-aminopyridine compounds and use thereof as drugs” (Eisai Co., Ltd., priority 2000, dated 2004).

Columns and labels:
SD IGS rats = assay: Evaluation of defecation-promoting action; type: in vivo, rat; details: oral, 90 minutes after administration, per cage
Text: Evaluation of Defecation-Promoting Action
The defecation-promoting action of the adenosine A2b receptor-inhibiting compound which was identified by measuring the binding ability and inhibitory ability thereof to the adenosine receptor in Test Example 1, a salt thereof, a hydrate of them, or a pharmaceutical composition containing it can be evaluated on the basis of the following method. That is, SD IGS rats (6 weeks-old, from Charles River) were placed in cages (3 animals/cage) and preliminarily allowed food and water ad libitum and raised for 1 week. Then, a tared water-absorbing sheet was placed below each cage, and the animals were fasted but allowed water ad libitum throughout the experiment. After 1.5 hours, the fecal pellets were recovered from each cage and observed for abnormality before the experiment. The compound suspended or dissolved in 0.5% (w/v) methyl cellulose (MC) was orally administered in a dose of 5 ml/kg. On one hand, 0.5% (w/v) MC only was orally given to the control group. After administration of the compound, the rats were returned to the cage provided with a new water-absorbing sheet, and 90 minutes after the administration, the fecal pellets on the water-absorbing sheet were recovered from each cage, and the external appearance was observed, and then counted and weighed. The number of fecal pellets is expressed per each cage. After the fecal pellets were recovered, the water-absorbing sheet was weighed, and the weight determined by subtracting the initial weight of the water-adsorbing sheet from the weight after the experiment was regarded as the volume of urine.

adenosine A2a receptor = molecular target: T1, adenosine A2a receptor (Homo sapiens, UniProt P29274); assay: Measurement of the ability to bind to adenosine A2a receptor (3H-CGS21680 binding inhibition); details: A2a receptor membrane sample, 3H-CGS21680, Cheng-Prusoff
T1 construct: purchased Receptor Biology Inc
Experimental: Measurement of the Ability to Bind to Adenosine A2a Receptor
An experiment of inhibition of binding to adenosine A2a receptor was conducted using a membrane sample (Receptor Biology Inc.) where an adenosine A2a receptor cDNA was expressed in excess. This membrane sample was added at a protein concentration of 22.2 μg/ml to, and suspended in, 20 mM HEPES buffer, pH 7.4 (10 mM MgCl2 and 100 mM NaCl). To 0.45 ml of this membrane sample suspension were added 0.025 ml of 500 nM tritium-labeled 2-p-[2-carboxyethyl]phenetylamino-5′-N-ethylarboxyamide adenosine (^3H—CGS21680, from NEN) and 0.025 ml test compound. This mixture was left at 25° C. for 90 minutes, filtered rapidly under suction through a glass fiber filter (GF/B, from Whatman), and immediately washed twice with 5 ml of 50 mM water-cooled Tris-HCl buffer. Thereafter, the glass fiber filter was transferred to a vial, a scintillator was added thereto, and the radioactivity on the filter was measured by a liquid scintillation counter. The inhibition of binding of ^3H—CGS21680 to A2a receptor by the test compound was determined using the following formula, and from this inhibition, 50% inhibition concentration (IC50) was calculated.
Inhibition (%)=[1−{binding in the presence of the test compound-nonspecific binding)/(total binding-nonspecific binding)}]×100
Here, the total binding means ^3H—CGS21680-bound radioactivity in the absence of the test compound; the nonspecific binding means ^3H—CGS21680-bound radioactivity in the presence of 100 μM RPIA; and the binding in the presence of the test compound means ^3H—CGS21680-bound radioactivity in the […] of the test compound at predetermined concentrations. The inhibition constant (Ki value) in the table was determined from the formula of Cheng-Prusoff.

[1] = molecular target: T2, human adenosine A1 receptor (Homo sapiens, UniProt P30542); assay: Measurement of the ability to bind to adenosine A1 receptor (3H-CCPA binding inhibition); details: membrane of CHOK1 cells expressing human A1 receptor, Cheng-Prusoff
T2 construct: expressed in transfected cells; host or cells: CHOK1 cells (membrane sample)
T2 sequence (P30542 1-326): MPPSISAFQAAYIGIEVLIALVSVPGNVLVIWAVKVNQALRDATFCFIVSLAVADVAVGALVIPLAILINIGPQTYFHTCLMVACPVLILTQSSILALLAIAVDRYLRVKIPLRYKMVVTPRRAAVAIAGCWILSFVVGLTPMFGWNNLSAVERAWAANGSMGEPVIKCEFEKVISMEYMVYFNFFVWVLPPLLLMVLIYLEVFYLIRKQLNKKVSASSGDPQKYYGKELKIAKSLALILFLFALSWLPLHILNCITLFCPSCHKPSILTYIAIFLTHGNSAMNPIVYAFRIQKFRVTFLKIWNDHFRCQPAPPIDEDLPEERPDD
Experimental: Measurement of the Ability to Bind to Adenosine A1 Receptor
A human adenosine A1 receptor cDNA was expressed in excess in CHOK1 cells, and this membrane sample was added at a protein concentration of 66.7 μg/ml to, and suspended in, 20 mM HEPES buffer, pH 7.4 (10 mM MgCl2, 100 mM NaCl). To 0.45 ml of this membrane sample suspension were added 0.025 ml of 60 nM tritium-labeled chlorocyclopentyl adenosine (^3H—CCPA, from NEN Ltd.) and 0.025 ml test compound. This mixture was left at 30° C. for 120 minutes, filtered rapidly under suction through a glass fiber filter (GF/B, from Whatman), and immediately washed twice with 5 ml of 50 mM water-cooled Tris-HCl buffer. Thereafter, the glass fiber filter was transferred to a vial, a scintillator was added thereto, and the radioactivity on the filter was measured by a liquid scintillation counter. The inhibition of binding of ^3H—CCPA to A1 receptor by the test compound was determined using the following formula, and from this inhibition, 50% inhibition concentration (IC50) was calculated (the following equation).
Inhibition (%)=[1−{binding in the presence of the test compound-non-specific binding)/(total binding-non-specific binding)}]×100
In the above formula, the total binding means ^3H—CCPA-bound radioactivity in the absence of the test compound; the non-specific binding means ^3H—CCPA-bound radioactivity in the presence of 100 μM RPIA ([R]-[1-methyl-2-phenylethyl] adenosine); and the binding in the presence of the test compound means ^3H—CCPA-bound radioactivity in the presence of the test compound at predetermined concentrations. The inhibition constant (Ki value) in the table was determined from the formula of Cheng-Prusoff.

[2] = molecular target: T3, human adenosine A2b receptor (Homo sapiens, UniProt P29275); assay: Inhibition of NECA-stimulated production of cAMP in adenosine A2b receptor-expressing cells; type: cell-based; details: CHOK1 cells expressing human A2b receptor, 30 nM NECA
T3 construct: expressed in transfected cells; host or cells: CHOK1 cells
T3 sequence (P29275 1-332): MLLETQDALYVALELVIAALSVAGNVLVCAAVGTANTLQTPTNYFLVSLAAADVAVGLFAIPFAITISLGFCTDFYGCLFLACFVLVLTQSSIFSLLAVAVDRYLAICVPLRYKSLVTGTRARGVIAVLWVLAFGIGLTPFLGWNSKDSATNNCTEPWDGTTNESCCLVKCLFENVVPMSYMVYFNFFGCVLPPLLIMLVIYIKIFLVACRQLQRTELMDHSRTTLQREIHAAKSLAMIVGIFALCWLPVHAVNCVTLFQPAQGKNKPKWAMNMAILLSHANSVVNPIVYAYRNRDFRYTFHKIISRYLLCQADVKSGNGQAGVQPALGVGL
Experimental: Experiment of Inhibition of NECA-stimulated Production of cAMP in Adenosine A2b Receptor-expressing Cells
CHOK1 cells where a human adenosine A2b receptor had been expressed in excess were plated onto a 24-well plate at a density of 1.5×10^5 cells/well, cultured overnight, and used in the experiment. The degree of inhibitory effect of the test compound on the amount of cAMP produced by stimulation with 30 nM 5′-N-ethylcarboxyamide adenosine (NECA from Sigma) was evaluated in terms of affinity for A2b receptor. That is, the adhering cells were washed twice with 2 ml/well Krebs-Ringer buffer solution (containing 0.1% BSA; pH 7.4) and pre-incubated for 30 minutes in a volume of 0.5 ml/well. Then, a mixed solution containing NECA and the test compound was added in a volume of 0.1 ml/well in the presence of a phosphodiesterase inhibitor Ro-20-1724 (a product of RBI). After pre-incubation for 15 minutes, the reaction was terminated with 0.1 N HCl in a volume of 300 μl/well. Measurement of intracellular cAMP was carried out using a cAMP enzyme immunoassay kit produced by Amersham. The inhibition of NECA-stimulated production of cAMP by the test compound was determined using the following equation:
Inhibition (%)=[1−{(amount of cAMP in the coexistence of NECA and the test compound-amount of CAMP in only the Krebs-Ringer buffer solution)/(amount of CAMP upon stimulation with NECA only-amount of cAMP in only the Krebs-Ringer buffer solution)}]×100

T1 sequence (P29274 whole entry): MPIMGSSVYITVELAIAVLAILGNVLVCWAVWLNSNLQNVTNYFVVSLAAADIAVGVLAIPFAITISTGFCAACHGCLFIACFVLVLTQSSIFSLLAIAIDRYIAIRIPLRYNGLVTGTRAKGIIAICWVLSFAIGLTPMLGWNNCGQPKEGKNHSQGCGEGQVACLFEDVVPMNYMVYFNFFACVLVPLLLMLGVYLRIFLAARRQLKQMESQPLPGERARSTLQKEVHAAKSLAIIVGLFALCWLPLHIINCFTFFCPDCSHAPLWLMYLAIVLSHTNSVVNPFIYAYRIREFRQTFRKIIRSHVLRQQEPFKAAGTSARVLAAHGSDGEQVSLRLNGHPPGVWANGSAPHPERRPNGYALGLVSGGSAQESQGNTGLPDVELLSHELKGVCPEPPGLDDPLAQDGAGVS

Row | Compound | The number of fecal pellets (SD IGS rats; 1 mg/kg) | The number of fecal pellets (SD IGS rats; 10 mg/kg) | Ki (adenosine A2a receptor) [nM] | Ki [1] [nM] | IC50 [2] [nM] | The number of fecal pellets (SD IGS rats; 3 mg/kg)
1 | 2-Amino-6-(fluorophenyl)-5-(4-pyridyl)-3-pyridinecarbonitrile [Example 2] | 7.80 ± 0.20 | 18.00 ± 1.30 | 22 | 66 | 3.7 | –
2 | N#Cc1cc(-c2ccncc2)c(-c2ccco2)nc1N [Example 1, 2-Amino-6-(2-furyl)-5-(4-pyridyl)-3-pyridinecarbonitrile] | 1.75 ± 1.03 | 22.25 ± 2.93 | 23 | 990 | 2.7 | 7.25 ± 1.65
3 | CCn1cc(-c2cc(C#N)c(N)nc2-c2ccco2)ccc1=O [Example 5, 2-Amino-5-(1-ethyl-6-oxo-1,6-dihydro-3-pyridinyl)-6-(2-furyl)nicotinonitrile] | 7.00 ± 1.23 | – | 7 | 400 | 6.5 | 14.25 ± 3.38
